# Patent publication US10166237B2, “Compounds and methods for inducing chondrogenesis” (The Scripps Research Institute, priority 2011, dated 2019)
# Tested on: human mesenchymal stem cells (hMSCs)
# Assay: chondrogenic nodule formation by hMSCs (high throughput screen)
# Type: cell-based
# Settings: not given
# Procedure: The primary screening assay was based upon the development of chondrogenic nodules. Chondrocytes can grow in monolayer in vitro, but to more closely mimic their native environment in the joint, the cells are routinely cultured in non-adherent conditions such as in pellet cultures or alginate bead suspensions.
# In the actual screen of a library of 22,000 structurally diverse heterocycles, 10^4 primary hMSCs were plated in 384 well plates in serum free DMEM. The cells were treated with 5 μM of each compound and incubated for 4 days. […] To facilitate high throughput imaged-based detection, the chondrogenic nodules were stained with […]. The Nile Red stained nodules were quantified on an Acumen eX3 (high content imaging device) by excitation with a 488 laser for rapid detection of the nodules.
# Primary hMSCs grown in a 96 well Greiner plates (50,000/well) were incubated for 4 days in the presence of the 5 uM of each DMSO or 100 nM of PRO1. On day 4, the cells were fixed with 4% formalin for 10 minutes, washed and stained with 1 μg/ml of Rhodamine B for 2 hours at room temperature.
row,Compound,Activity (chondrogenic nodules formed in % of cells)
1,N#Cc1ccc(NC(=O)c2ccccc2C#N)cc1 [Compound A01],** (chondrogenic nodules formed in at least 25% but less than 50% of cells)
2,N#Cc1ccc(NC(=O)c2ccccc2CC(=O)O)cc1 [Compound A06],*** (chondrogenic nodules formed in at least 50% but less than 75% of cells)
3,CC(=O)c1ccccc1C(=O)Nc1ccc(C#N)cc1 [Compound A09],** (chondrogenic nodules formed in at least 25% but less than 50% of cells)
4,COC(=O)Nc1ccccc1C(=O)Nc1ccc(C#N)cc1 [Compound A11],** (chondrogenic nodules formed in at least 25% but less than 50% of cells)
5,N#Cc1ccc(NC(=O)c2ccccc2NC(N)=O)cc1 [Compound A12],** (chondrogenic nodules formed in at least 25% but less than 50% of cells)
6,CS(=O)(=O)Nc1ccccc1C(=O)Nc1ccc(C#N)cc1 [Compound A13],** (chondrogenic nodules formed in at least 25% but less than 50% of cells)
7,N#Cc1ccc(NC(=O)c2ccccc2S(=O)(=O)O)cc1 [Compound A22],** (chondrogenic nodules formed in at least 25% but less than 50% of cells)
8,N#Cc1ccc(NC(=O)c2ccccc2S(N)(=O)=O)cc1 [Compound A23],** (chondrogenic nodules formed in at least 25% but less than 50% of cells)
9,CNS(=O)(=O)c1ccccc1C(=O)Nc1ccc(C#N)cc1 [Compound A24],** (chondrogenic nodules formed in at least 25% but less than 50% of cells)
10,N#Cc1ccc(NC(=O)c2ccc(C#N)cc2C(=O)O)cc1 [Compound B02],** (chondrogenic nodules formed in at least 25% but less than 50% of cells)
11,"N#Cc1ccc(NC(=O)c2cc(C#N)ccc2C(=O)O)cc1 [Compound B03, sodium 4-cyano-2-[(4-cyanophenyl)carbamoyl]benzoate]",*** (chondrogenic nodules formed in at least 50% but less than 75% of cells)
12,N#Cc1ccc(NC(=O)c2ccc(C(=O)O)cc2C(=O)O)cc1 [Compound B10],** (chondrogenic nodules formed in at least 25% but less than 50% of cells)
13,N#Cc1ccc(NC(=O)c2c(C(=O)O)cccc2C(=O)O)cc1 [Compound B12],** (chondrogenic nodules formed in at least 25% but less than 50% of cells)
14,N#Cc1ccc(NC(=O)c2ccncc2C(=O)O)cc1 [Compound B19],*** (chondrogenic nodules formed in at least 50% but less than 75% of cells)
15,N#Cc1ccc(NC(=O)c2cccnc2C(=O)O)cc1 [Compound B20],** (chondrogenic nodules formed in at least 25% but less than 50% of cells)
16,N#Cc1ccc(NC(=O)c2ccccc2-c2ccccc2C(=O)O)cc1 [Compound B32],** (chondrogenic nodules formed in at least 25% but less than 50% of cells)
17,O=C(O)c1ccccc1C(=O)Nc1ccncc1 [Compound N01],*** (chondrogenic nodules formed in at least 50% but less than 75% of cells)
18,O=C(O)c1ccccc1C(=O)Nc1ccccc1OC(F)F [Compound N04],*** (chondrogenic nodules formed in at least 50% but less than 75% of cells)
19,O=C(O)c1ccccc1C(=O)Nc1cccc(OC(F)F)c1 [Compound N05],** (chondrogenic nodules formed in at least 25% but less than 50% of cells)
20,CC(=O)c1cccc(NC(=O)c2ccccc2C(=O)O)c1 [Compound N08],**** (chondrogenic nodules formed in at least 75% of cells)
21,CC(=O)c1ccc(NC(=O)c2ccccc2C(=O)O)cc1 [Compound N09],** (chondrogenic nodules formed in at least 25% but less than 50% of cells)
22,NC(=O)c1ccccc1NC(=O)c1ccccc1C(=O)O [Compound N10],** (chondrogenic nodules formed in at least 25% but less than 50% of cells)
23,NC(=O)c1cccc(NC(=O)c2ccccc2C(=O)O)c1 [Compound N11],** (chondrogenic nodules formed in at least 25% but less than 50% of cells)
24,O=C(O)c1ccccc1NC(=O)c1ccccc1C(=O)O [Compound N13],** (chondrogenic nodules formed in at least 25% but less than 50% of cells)

row,Compound,Activity (chondrogenic nodules formed in % of cells)
1,O=C(O)c1cccc(NC(=O)c2ccccc2C(=O)O)c1 [Compound N14],** (chondrogenic nodules formed in at least 25% but less than 50% of cells)
2,NS(=O)(=O)c1cccc(NC(=O)c2ccccc2C(=O)O)c1 [Compound N17],** (chondrogenic nodules formed in at least 25% but less than 50% of cells)
3,N#Cc1cccc(NC(=O)c2ccccc2C(=O)O)c1 [Compound N19],*** (chondrogenic nodules formed in at least 50% but less than 75% of cells)
4,O=C(O)c1ccccc1C(=O)Nc1ccccc1CO [Compound N20],** (chondrogenic nodules formed in at least 25% but less than 50% of cells)
5,CNCc1cccc(NC(=O)c2ccccc2C(=O)O)c1 [Compound N24],*** (chondrogenic nodules formed in at least 50% but less than 75% of cells)
6,O=C(O)c1ccccc1C(=O)Nc1ccc(CCO)cc1 [Compound N26],*** (chondrogenic nodules formed in at least 50% but less than 75% of cells)
7,O=C(O)c1ccccc1C(=O)Nc1ccc(N2CCOCC2)cc1 [Compound N28],** (chondrogenic nodules formed in at least 25% but less than 50% of cells)
8,N#CC1CCC(NC(=O)c2ccccc2C(=O)O)CC1 (stereo not shown) [Compound N30],** (chondrogenic nodules formed in at least 25% but less than 50% of cells)
9,O=C(O)c1ccccc1C(=O)NC1CCC(C(=O)O)CC1 (stereo not shown) [Compound N31],** (chondrogenic nodules formed in at least 25% but less than 50% of cells)
10,O=C(O)c1ccccc1C(=O)NCC1CCC(C(=O)O)CC1 (stereo not shown) [Compound N33],** (chondrogenic nodules formed in at least 25% but less than 50% of cells)
11,O=C(O)c1ccccc1C(=O)Nc1ncc[nH]1 [Compound N34],** (chondrogenic nodules formed in at least 25% but less than 50% of cells)
12,O=C(O)c1ccccc1C(=O)Nc1ncco1 [Compound N35],** (chondrogenic nodules formed in at least 25% but less than 50% of cells)
13,O=C(O)c1ccccc1C(=O)Nc1nc(-c2ccccc2)co1 [Compound N38],** (chondrogenic nodules formed in at least 25% but less than 50% of cells)
14,O=C(O)c1ccccc1C(=O)Nc1nc(-c2ccccc2)cs1 [Compound N39],** (chondrogenic nodules formed in at least 25% but less than 50% of cells)
15,O=C(O)c1ccccc1C(=O)Nc1cncs1 [Compound N42],*** (chondrogenic nodules formed in at least 50% but less than 75% of cells)
16,O=C(O)c1ccccc1C(=O)Nc1cnc(-c2ccccc2)s1 [Compound N45],*** (chondrogenic nodules formed in at least 50% but less than 75% of cells)
17,O=C(O)c1ccccc1C(=O)Nc1ncccn1 [Compound N50],** (chondrogenic nodules formed in at least 25% but less than 50% of cells)
18,O=C(O)c1ccccc1C(=O)Nc1cnccn1 [Compound N52],** (chondrogenic nodules formed in at least 25% but less than 50% of cells)
19,N#Cc1cccc2[nH]c(-c3ccccc3C(=O)O)nc12 [Compound R01],** (chondrogenic nodules formed in at least 25% but less than 50% of cells)
20,N#Cc1ccc2nc(-c3ccccc3C(=O)O)sc2c1 [Compound R06-1],** (chondrogenic nodules formed in at least 25% but less than 50% of cells)
21,N#Cc1ccc(S(=O)(=O)Nc2ccccc2C(=O)O)cc1 [Compound R07],** (chondrogenic nodules formed in at least 25% but less than 50% of cells)
22,N#Cc1ccc(NC(=O)Nc2ccccc2C(=O)O)cc1 [Compound R10],** (chondrogenic nodules formed in at least 25% but less than 50% of cells)
23,O=C(O)c1ccccc1CNC(=O)c1ccccc1C(=O)O [MS01],*** (chondrogenic nodules formed in at least 50% but less than 75% of cells)

# Same assay, conditions: Homo sapiens, Mesenchymal stem cells; first value of the cell (before the slash); read-out: CHONDROGENIC μM EC50
row,Compound,EC50 [µM]
1,N#Cc1ccccc1NC(=O)c1ccccc1C(=O)O [LK13b],> 10
2,"O=C(O)c1ccccc1C(=O)Nc1nnc(-c2ccccc2)s1 [LK57, 2-((5-phenyl-1,3,4-thiadiazol-2-yl)carbamoyl)benzoic acid]",> 10
